Reference: US11702404B2, “GLP-1R modulating compounds” (priority 2019, dated 2023)

assay: Microsomal stability, human liver microsomes (predicted hepatic clearance); conditions: predicted from in vitro microsomal stability data

CC(=O)N1CCC[C@H]1Cn1c(Cc2ccc(-c3ccc(F)c(OCc4ccc(Cl)cc4F)c3)cc2F)nc2ccc(C(=O)O)cc21 [Example 464, (S)-1-((1-acetylpyrrolidin-2-yl)methyl)-2-((3′-((4-chloro-2-fluorobenzyl)oxy)-3,4′-difluoro-[1,1′-biphenyl]-4-yl)methyl)-1H-benzo[d]imidazole-6-carboxylic acid] and N#Cc1ccc(COc2cccc(-c3ccc(Cc4nc5ccc(C(=O)O)cc5n4CC4CCO4)c(F)c3)n2)c(F)c1 (single isomer, unassigned) [Example 67, 2-(4-(6-((4-Cyano-2-fluorobenzyl)oxy)pyridin-2-yl)-2-fluorobenzyl)-1-(oxetan-2-ylmethyl)-1H-benzo[d]imidazole-6-carboxylic acid] are within 1.5-fold of each other in “Predicted Hepatic Clearance (Pred. Cl.)” value: 4 mL/min/kg for the first, 5.17 mL/min/kg for the second.

First: COCCn1c(Cc2ccc(-c3cccc(OCc4ccc(C(F)(F)F)nc4N)n3)cc2F)nc2ccc(C(=O)O)cc21 [Example 595, 2-(4-(6-((2-amino-6-(trifluoromethyl)pyridin-3-yl)methoxy)pyridin-2-yl)-2-fluorobenzyl)-1-(2-methoxyethyl)-1H-benzo[d]imidazole-6-carboxylic acid]
Second: COCCn1c(Cc2ccc(-c3cccc(OCc4cccc5cc[nH]c45)n3)cc2F)nc2ccc(C(=O)O)cc21 [Example 479, 2-(4-(6-((1H-indol-7-yl)methoxy)pyridin-2-yl)-2-fluorobenzyl)-1-(2-methoxyethyl)-1H-benzo[d]imidazole-6-carboxylic acid]
The “Predicted Hepatic Clearance (Pred. Cl.)” value of the first is 1.5-fold lower: 6.17 mL/min/kg for the first, 9.33 mL/min/kg for the second.

First: COCCn1c(Cc2ccc(-c3cc(-c4cnn(C)c4)cc(OCc4ccc(C#N)cc4F)n3)cc2F)nc2ccc(C(=O)O)cc21 [Example 99, 2-(4-(6-((4-cyano-2-fluorobenzyl)oxy)-4-(1-methyl-1H-pyrazol-4-yl)pyridin-2-yl)-2-fluorobenzyl)-1-(2-methoxyethyl)-1H-benzo[d]imidazole-6-carboxylic acid]
Second: COCCn1c(Cc2ccc(-c3nnc(OCc4ccc(C#N)cc4F)s3)cc2F)nc2ccc(C(=O)O)cc21 [Example 213, 2-(4-(5-((4-cyano-2-fluorobenzyl)oxy)-1,3,4-thiadiazol-2-yl)-2-fluorobenzyl)-1-(2-methoxyethyl)-1H-benzo[d]imidazole-carboxylic acid]
The “Predicted Hepatic Clearance (Pred. Cl.)” value of the first is 3.9-fold lower: 2.33 mL/min/kg for the first, 9.17 mL/min/kg for the second.

COCCn1c(Cc2ccc(-c3cccc(OCc4ccc(C#N)cc4F)n3)c(NC(C)=O)c2)nc2ccc(C(=O)O)cc21 [Example 253, 2-(3-acetamido-4-(6-((4-cyano-2-fluorobenzyl)oxy)pyridin-2-yl)benzyl)-1-(2-methoxyethyl)-1H-benzo[d]imidazole-6-carboxylic acid] and COCCn1c(Cc2ccc(-c3cccc(OCc4ccc(C#N)cc4F)n3)cc2-c2cccnc2)nc2ccc(C(=O)O)cc21 [Example 185, 2-(4-(6-((4-cyano-2-fluorobenzyl)oxy)pyridin-2-yl)-2-(pyridin-3-yl)benzyl)-1-(2-methoxyethyl)-1H-benzo[d]imidazole-6-carboxylic acid] are within 1.5-fold of each other in “Predicted Hepatic Clearance (Pred. Cl.)” value: 14 mL/min/kg for the first, 12 mL/min/kg for the second.

Going from CC(=O)N1CCC[C@H]1Cn1c(Cc2ccc(-c3ccc(F)c(OCc4ccc(Cl)cc4F)c3)cc2F)nc2ccc(C(=O)O)cc21 [Example 482, 3-[[(2S)-1-acetylpyrrolidin-2-yl]methyl]-2-[[4-[3-[(4-chloro-2-fluoro-phenyl)methoxy]-4-fluoro-phenyl]-2-fluoro-phenyl]methyl]benzimidazole-5-carboxylic acid] to COCCn1c(Cc2c(F)cc(-c3cnccc3OCc3ccc(C#N)cc3F)cc2F)nc2ccc(C(=O)O)cc21 [Example 191, 2-(4-(4-((4-cyano-2-fluorobenzyl)oxy)pyridin-3-yl)-2,6-difluorobenzyl)-1-(2-methoxyethyl)-1H-benzo[d]imidazole-carboxylic acid], the “Predicted Hepatic Clearance (Pred. Cl.)” value rises from 4.83 mL/min/kg to 7.83 mL/min/kg (1.6-fold).

COCCn1c(Cn2cc(-c3csc(OCc4ccc(C#N)cc4F)n3)cn2)nc2ccc(C(=O)O)cc21 [Example 78, 2-((4-(2-((4-cyano-2-fluorobenzyl)oxy)thiazol-4-yl)-1H-pyrazol-1-yl)methyl)-1-(2-methoxyethyl)-1H-benzo[d]imidazole-6-carboxylic acid] and COCCn1c(C(C)c2ccc(-c3cccc(OCc4ccc(C#N)cc4F)n3)cc2)nc2ccc(C(=O)O)cc21 (single isomer, unassigned) [Example 439, 2-(1-(4-(6-((4-cyano-2-fluorobenzyl)oxy)pyridin-2-yl)phenyl)ethyl)-1-(2-methoxyethyl)-1H-benzo[d]imidazole-6-carboxylic acid] are within 1.5-fold of each other in “Predicted Hepatic Clearance (Pred. Cl.)” value: 7 mL/min/kg for the first, 6 mL/min/kg for the second.

Compared with COCCn1c(Cc2cc(F)c(-c3ccc(F)c(OCc4cc(F)c(C#N)cc4F)n3)cc2F)nc2c(F)cc(C(=O)O)cc21 [Example 763], COCCn1c(Cc2ccc(-c3cccc(OCc4ccccc4S(C)(=O)=O)n3)cc2F)nc2ccc(C(=O)O)cc21 [Example 510, 2-(2-fluoro-4-(6-((2-(methylsulfonyl)benzyl)oxy)pyridin-2-yl)benzyl)-1-(2-methoxyethyl)-1H-benzo[d]imidazole-6-carboxylic acid] is 7.9-fold higher in “Predicted Hepatic Clearance (Pred. Cl.)” value: 1.83 mL/min/kg for the first, 14.5 mL/min/kg for the second.

Compared with CCOP(=O)(OCC)c1ccc2nc(Cc3ccc(-c4cccc(OCc5ccc(C#N)cc5F)n4)cc3F)n(CCOC)c2c1 [Example 556, Diethyl (2-(4-(6-((4-cyano-2-fluorobenzyl)oxy)pyridin-2-yl)-2-fluorobenzyl)-1-(2-methoxyethyl)-1H-benzo[d]imidazol-6-yl)phosphonate], COCCn1c(Cc2ccc(-c3cccc(OCc4ccc5cn[nH]c5c4)n3)cc2F)nc2ccc(C(=O)O)cc21 [Example 463, 2-(4-(6-((1H-indazol-6-yl)methoxy)pyridin-2-yl)-2-fluorobenzyl)-1-(2-methoxyethyl)-1H-benzo[d]imidazole-6-carboxylic acid] is 8.4-fold lower in “Predicted Hepatic Clearance (Pred. Cl.)” value: 19.5 mL/min/kg for the first, 2.33 mL/min/kg for the second.

With COCCn1c(Cc2ccc(-c3cc(C#Cc4ccccc4)cc(OCc4ccc(C#N)cc4F)n3)cc2F)nc2ccc(C(=O)O)cc21 [Example 100, 2-(4-(6-((4-cyano-2-fluorobenzyl)oxy)-4-(phenylethynyl)pyridin-2-yl)-2-fluorobenzyl)-1-(2-methoxyethyl)-1H-benzo[d]imidazole-6-carboxylic acid] the “Predicted Hepatic Clearance (Pred. Cl.)” value was under 1.83 mL/min/kg.
With N#Cc1ccc(COc2cccc(-c3ccc(Cc4nc5ccc(C(=O)O)cc5n4CC4CCO4)c(F)c3)n2)c(F)c1 (single isomer, unassigned) [Example 68, 2-(4-(6-((4-Cyano-2-fluorobenzyl)oxy)pyridin-2-yl)-2-fluorobenzyl)-1-(oxetan-2-ylmethyl)-1H-benzo[d]imidazole-6-carboxylic acid] the “Predicted Hepatic Clearance (Pred. Cl.)” value was under 1.83 mL/min/kg.
With COCCn1c(Cc2ccc(-c3cccc(OCc4ccccc4N)n3)cc2F)nc2ccc(C(=O)O)cc21 [Example 498, 2-(4-(6-((2-aminobenzyl)oxy)pyridin-2-yl)-2-fluorobenzyl)-1-(2-methoxyethyl)-1H-benzo[d]imidazole-6-carboxylic acid] the “Predicted Hepatic Clearance (Pred. Cl.)” value was under 1.83 mL/min/kg.
